Data on two compounds can be found in patent US6436373B1, “Oligomeric diarylbutadienes” (BASF Aktiengesellschaft, priority 1998, dated 2002).

This data set is described as follows: UV absorption (λmax and specific absorbance E1^1). The settings on record: for λmax.: UV absorption maximum, no unit or solvent printed; for E1^1: specific absorbance at λmax, solvent not given. The data set is classed as physicochemical.

As to `CCOC(=O)/C(=C/C=C(c1ccccc1)c1ccccc1)C(=O)OCCOC(=O)/C(=C\C=C(c1ccccc1)c1ccccc1)C(=O)OCC` [Example 2], the λmax. came to 336 and the “E1^1” value was 800.

On to `N#C/C(=C/C=C(c1ccccc1)c1ccccc1)C(=O)OCCOC(=O)/C(C#N)=C\C=C(c1ccccc1)c1ccccc1` [Example 3], for which the λmax. amounted to 354 and the “E1^1” value is 850.
